Values quoted from earlier work in patent US20100143322A1, “USE OF INHIBITORS OF N-METHYL TRANSFERASES FOR THE THERAPY OF PARKINSON'S DISEASE” (priority 2005, published 2010).

Target: T1, phenylethanolamine N-methyl transferase (PNMT) (Homo sapiens, UniProt P11086)
T1 sequence (P11086 1-282): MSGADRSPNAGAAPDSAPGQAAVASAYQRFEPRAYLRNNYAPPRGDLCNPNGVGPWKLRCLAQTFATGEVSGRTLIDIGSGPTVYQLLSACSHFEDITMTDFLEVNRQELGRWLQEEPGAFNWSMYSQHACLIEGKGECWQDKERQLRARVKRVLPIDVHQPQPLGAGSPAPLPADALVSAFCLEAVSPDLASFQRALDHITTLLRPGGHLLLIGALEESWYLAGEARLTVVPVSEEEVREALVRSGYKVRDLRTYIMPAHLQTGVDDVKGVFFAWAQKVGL
Settings: less than 2 mg of Ala-Cys-Cys, isolated from rabbit liver and purified

inhibition of the PNMT in the PNMT test: > 90%
Substance: Ala-Cys-Cys
